Source: patent publication US11479802B2, “Assays for screening activity of modulators of members of the hydroxy steroid (17-beta) dehydrogenase (HSD17B) family” (Regeneron Pharmaceuticals, Inc., priority 2017, dated 2022)

Legend:
[1] = biological target: T1, recombinant HSD17B13 (E20-K300) (Homo sapiens, UniProt Q7Z5P4); assay: Biochemical NADH-linked screen of bioactive lipids as substrates (Example 2); conditions: 5 μM substrate, 100 μM NAD+, four hours at room temperature
T1 construct: recombinant HSD17B13 (E20-K300)
T1 sequence (Q7Z5P4 20-300): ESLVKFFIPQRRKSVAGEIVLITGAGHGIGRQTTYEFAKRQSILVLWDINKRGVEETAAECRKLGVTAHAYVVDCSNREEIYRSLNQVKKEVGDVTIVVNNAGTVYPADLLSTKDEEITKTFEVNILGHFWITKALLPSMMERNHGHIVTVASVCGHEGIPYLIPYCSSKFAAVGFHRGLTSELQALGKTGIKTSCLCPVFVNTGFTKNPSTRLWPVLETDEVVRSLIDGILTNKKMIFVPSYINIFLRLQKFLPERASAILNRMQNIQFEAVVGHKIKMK
Description: The biochemical assay described in Example 1 was repeated using bioactive lipids as substrates. In brief, 5 μM of each substrate was incubated in 40 μL reactions containing 1 μg of recombinant HSD17B13 (E20-K300) or beta-2 microglobulin (as a negative control) and 100 μM NAD^+ in 0.2M Tris-HCl, pH 7.5. After four hours of incubation at room temperature, 10 μL of each reaction was mixed with 10 μL luciferase and read, after 40 minutes, on an Envision Plate Reader (Perkin Elmer).

human HSD17B13 [2] = biological target: T2, human HSD17B13 (Homo sapiens, UniProt Q7Z5P4); assay: Substrate screening of steroid and bioactive lipid libraries against purified recombinant HSD17B13 (NADH-linked luciferase assay); type: biochemical; conditions: Steroid Library, 50 μM steroid; for HSD17B13 Enzymatic Activity Relative Light Units: 500 μM NAD+, 100 ng enzyme, 3 hours at 23° C.; for HSD17B13 Enzymatic Activity Percent Estradiol Control: normalized to 50 μM estradiol after subtraction of 5% DMSO
T2 sequence (Q7Z5P4 20-300): T1 sequence (Q7Z5P4 20-300)
In short: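 Recombinant human HSD17B13 (100 ng) incubated 3 h at 23° C in 0.2 M Tris-HCl pH 7.5 with 500 μM NAD+ and 5 μM bioactive lipid or 50 μM steroid (5% DMSO). NADH measured by luciferase luminescence after 1 h; values as percent of 50 μM estradiol control after 5% DMSO subtraction.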

human HSD17B13 [3] = biological target: T2, human HSD17B13; assay: Biochemical NADH-linked screen of compound libraries as substrates for HSD17B13 (Example 1); conditions: 50 μM substrate, 0.5 mM NAD+, 24 hr at 25 degrees C.
Description: A biochemical assay was employed to screen the compounds from the library. The assay employed the following reaction conditions: 0.1 M Potassium phosphate buffer pH 7.5, 0.5 mM NAD^+, 50 μM substrate in DMSO 2% reaction volume or DMSO alone (no substrate) as a control, and 1 μl of purified enzyme or green fluorescent protein (GFP) as a control, with a final reaction volume of 100 microliters. Test samples were subject to a 24 hr incubation at 25 degrees C. After incubation, 20 μL reaction above+20 μL luciferase were incubated at room temperature for 1 h and read on an Envision Plate Reader (Perkin Elmer).

HSD17B4 = biological target: T3, HSD17B4 (Homo sapiens, UniProt P51659); assay: Steroid substrate panel against HSD17B family member B4; type: biochemical; conditions: substrate at 50 μM; estradiol set as 100%
T3 construct: made in house
T3 sequence (P51659 1-736): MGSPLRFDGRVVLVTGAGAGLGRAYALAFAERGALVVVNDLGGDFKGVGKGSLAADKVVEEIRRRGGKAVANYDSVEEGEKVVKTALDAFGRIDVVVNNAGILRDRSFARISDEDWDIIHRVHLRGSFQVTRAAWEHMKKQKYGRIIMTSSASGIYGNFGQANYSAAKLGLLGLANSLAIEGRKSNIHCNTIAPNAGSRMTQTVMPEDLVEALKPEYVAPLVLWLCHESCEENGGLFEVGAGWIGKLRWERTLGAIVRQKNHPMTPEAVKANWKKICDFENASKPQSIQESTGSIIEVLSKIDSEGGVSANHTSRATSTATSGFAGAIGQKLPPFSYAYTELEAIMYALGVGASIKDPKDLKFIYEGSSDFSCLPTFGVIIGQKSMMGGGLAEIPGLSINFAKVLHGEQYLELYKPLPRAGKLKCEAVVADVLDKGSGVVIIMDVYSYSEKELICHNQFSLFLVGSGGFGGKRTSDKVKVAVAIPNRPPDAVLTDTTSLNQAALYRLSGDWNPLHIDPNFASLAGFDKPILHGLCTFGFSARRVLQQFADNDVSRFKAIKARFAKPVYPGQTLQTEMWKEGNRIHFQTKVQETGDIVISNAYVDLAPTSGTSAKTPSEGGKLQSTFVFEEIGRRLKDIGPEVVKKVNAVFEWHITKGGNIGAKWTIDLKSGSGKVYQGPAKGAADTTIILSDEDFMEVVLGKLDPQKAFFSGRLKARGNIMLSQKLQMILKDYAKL
Description: (§1) To understand the functional consequences of premature truncation of the HSD17B13 protein due to rs72613567:TA (the associated variant, rs72613567, is an insertion of an adenine adjacent to the donor splice site of exon six (TA allele)), the enzymatic activity of isoforms A and D was evaluated in vitro using recombinant protein and nicotinamide […] dinucleotide as cofactor. Reactions were performed in a final volume of 40 μl of assay buffer (0.2 M Tris-HCl, pH 7.5) which contained 500 μM NAD^+, 5 μM bioactive lipid or 50 μM steroid (all in a final concentration of 5% DMSO), and 100 ng of recombinant human HSD17B13. Reactions were incubated for 3 hours, at 23° C., after which an equal volume detection reagent was added. Following a 1 hour incubation at 23° C., the relative light units (RLUs) were measured on an Envision Plate Reader (Perkin Elmer). Raw RLU values were normalized as percent of control (50 μM estradiol) following subtraction of negative control (5% DMSO) using the following formula: Percent of control (POC)=100×(Sample (RLU)−Negative CTRLaverage)/(Positive CTRLaverage−Negative CTRLaverage).
(§2) In order to determine specificity of compounds with inhibitory activity against HSD17B13, assays for selected members of the HSD17B family which includes HSD17B1-HSD17B14 were established. As a first step, selected family members were expressed, purified and tested for activity a using a steroid substrate panel. Substrates from the steroid panel were tested at 50 μM, using the standard assay protocol. Activity against the substrates for each HSD17B family member were normalized to Percent of Control (POC). The control, estradiol, was set as 100%.

HSD17B10 = biological target: T4, HSD17B10 (Homo sapiens, UniProt Q99714); assay: Steroid substrate panel against HSD17B family member B10; type: biochemical; conditions: substrate at 50 μM; estradiol set as 100%
T4 construct: made in house
T4 sequence (Q99714 1-261): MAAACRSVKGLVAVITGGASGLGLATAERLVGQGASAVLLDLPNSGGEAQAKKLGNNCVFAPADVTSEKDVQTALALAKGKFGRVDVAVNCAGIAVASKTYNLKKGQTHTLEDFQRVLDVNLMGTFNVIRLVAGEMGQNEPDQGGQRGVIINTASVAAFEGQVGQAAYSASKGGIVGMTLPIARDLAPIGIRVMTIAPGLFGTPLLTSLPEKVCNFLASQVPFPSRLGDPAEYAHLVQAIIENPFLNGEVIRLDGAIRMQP
Description: as §1, §2

HSD17B11 = biological target: T5, HSD17B11 (Homo sapiens, UniProt Q8NBQ5); assay: Steroid substrate panel against HSD17B family member B11; type: biochemical; conditions: substrate at 50 μM; estradiol set as 100%
T5 construct: made in house
T5 sequence (Q8NBQ5 20-300): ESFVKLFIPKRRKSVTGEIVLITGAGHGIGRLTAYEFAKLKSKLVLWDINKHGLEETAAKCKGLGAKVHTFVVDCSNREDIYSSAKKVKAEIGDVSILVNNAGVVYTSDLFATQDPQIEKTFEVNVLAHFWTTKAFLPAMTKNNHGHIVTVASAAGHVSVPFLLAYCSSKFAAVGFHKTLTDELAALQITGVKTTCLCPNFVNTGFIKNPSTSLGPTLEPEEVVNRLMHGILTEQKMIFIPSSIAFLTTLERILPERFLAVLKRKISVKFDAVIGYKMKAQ
Description: as §1, §2

HSD17B2 = biological target: T6, HSD17B2 (Homo sapiens, UniProt P37059); assay: Steroid substrate panel against HSD17B family member B2; type: biochemical; conditions: substrate at 50 μM; estradiol set as 100%
T6 construct: made in house
T6 sequence (P37059 1-387): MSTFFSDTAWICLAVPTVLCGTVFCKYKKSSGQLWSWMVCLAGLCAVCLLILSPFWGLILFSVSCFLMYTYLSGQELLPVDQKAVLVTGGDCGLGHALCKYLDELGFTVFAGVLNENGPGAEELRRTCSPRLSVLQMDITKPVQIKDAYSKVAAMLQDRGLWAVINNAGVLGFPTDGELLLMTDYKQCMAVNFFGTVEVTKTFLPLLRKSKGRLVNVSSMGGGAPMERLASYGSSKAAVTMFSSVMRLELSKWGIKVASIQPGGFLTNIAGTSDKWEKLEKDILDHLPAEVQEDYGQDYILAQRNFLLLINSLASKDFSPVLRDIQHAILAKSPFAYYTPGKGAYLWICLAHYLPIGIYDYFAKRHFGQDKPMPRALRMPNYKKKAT
Description: as §1, §2

HSD17B1 = biological target: T7, HSD17B1 (Homo sapiens, UniProt P14061); assay: Steroid substrate panel against HSD17B family member B1; type: biochemical; conditions: substrate at 50 μM; estradiol set as 100%
T7 construct: made in house
T7 sequence (P14061 1-328): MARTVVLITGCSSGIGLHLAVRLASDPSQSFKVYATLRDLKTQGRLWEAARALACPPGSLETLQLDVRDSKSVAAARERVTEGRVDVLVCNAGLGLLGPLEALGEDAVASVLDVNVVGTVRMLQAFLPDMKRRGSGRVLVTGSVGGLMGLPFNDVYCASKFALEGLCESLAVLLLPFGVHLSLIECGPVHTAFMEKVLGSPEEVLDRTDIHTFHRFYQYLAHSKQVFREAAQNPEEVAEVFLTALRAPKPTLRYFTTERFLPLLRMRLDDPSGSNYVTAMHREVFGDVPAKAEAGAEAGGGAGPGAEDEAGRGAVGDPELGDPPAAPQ
Description: as §1, §2

HSD17B5 = biological target: T8, HSD17B5 (Homo sapiens, UniProt P42330); assay: Steroid substrate panel against HSD17B family member B5; type: biochemical; conditions: substrate at 50 μM; estradiol set as 100%
T8 construct: made in house
T8 sequence (P42330 1-323): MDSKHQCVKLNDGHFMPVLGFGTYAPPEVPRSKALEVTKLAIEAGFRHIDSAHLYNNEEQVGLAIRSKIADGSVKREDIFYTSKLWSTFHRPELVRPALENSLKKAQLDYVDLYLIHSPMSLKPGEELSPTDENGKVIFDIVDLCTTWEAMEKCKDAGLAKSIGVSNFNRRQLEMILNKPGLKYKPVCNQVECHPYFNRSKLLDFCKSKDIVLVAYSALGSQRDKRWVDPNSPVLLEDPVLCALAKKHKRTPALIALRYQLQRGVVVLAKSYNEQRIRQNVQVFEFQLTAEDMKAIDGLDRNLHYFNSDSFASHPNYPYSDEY
Description: as §1, §2

Row | substrate for HSD17B13 [1] | Percent of Control (POC), B4 (HSD17B4) | Percent of Control (POC), B10 (HSD17B10) | Percent of Control (POC), B11 (HSD17B11) | Percent of Control (POC), B2 (HSD17B2) | Percent of Control (POC), B1 (HSD17B1) | Percent of Control (POC), B5 (HSD17B5) | SMILES | HSD17B13 Enzymatic Activity Relative Light Units (human HSD17B13 [2]) | HSD17B13 Enzymatic Activity Percent Estradiol Control (human HSD17B13 [2]) | suitability as substrate for HSD17B13 (human HSD17B13 [3])
1 | identified as representative substrates |  |  |  |  |  |  | CCCCCC[C@@H](O)C/C=C\CCCCCCCC(=O)O [ricinoleic acid] |  |  | 
2 |  |  |  |  |  |  |  | C[C@]12CC[C@H]3[C@@H](CC[C@@]45O[C@@H]4C(O)=C(C#N)C[C@]35C)[C@@H]1CC[C@@H]2O [Trilostane] | 1896560 RLU | 30.32% | suitable substrates
3 |  | 4.6% | 39.3% | 0.0% | 0.1% | 0.0% | 192% | CC[C@H]1[C@@H](O)[C@@H]2[C@H](CC[C@]3(C)[C@@H]([C@H](C)CCC(=O)O)CC[C@@H]23)[C@@]2(C)CC[C@@H](O)C[C@@H]12 [6-ethylchenodeoxycholic acid] | 76200 RLU | −1.47% | 
